Columns and labels:
[1] = system: subjects receiving hemodialysis, previously maintained on epoetin alfa; assay: Open-label Phase 2 trial in subjects receiving hemodialysis previously maintained on epoetin alfa
Method: The primary endpoint was mean hemoglobin (Hb) change from pre-baseline average to midtrial (Weeks 7-8) and end-of trial (Weeks 15-16) and was analyzed using available data (no imputation).

[2] = system: adult patients with NDD-CKD and anemia, actively treated with an ESA; assay: Phase 3 ESA-treated NDD-CKD (Conversion) trial, vadadustat vs darbepoetin alfa; type: in vivo, human; settings: Conversion study
Method: Two global, Phase 3, randomized, open-label, active-controlled, sponsor-blind clinical trials were conducted to evaluate safety and efficacy of vadadustat (Compound 1) vs the ESA darbepoetin alfa in adult patients with NDD-CKD and anemia. Patients recruited into the ESA-untreated NDD-CKD trial (N=1761) had hemoglobin <10 g/dL and were not previously being treated with an ESA. Patients recruited into the ESA-treated NDD-CKD trial (N=1750) had hemoglobin ranges of 8-11 g/dL (US) or 9-12 g/dL (non-US) and were actively treated with an ESA for anemia associated with CKD. Trial periods in both trials included 1) correction/conversion (weeks 0-23); 2) maintenance (weeks 24-52); 3) long-term treatment (week 53 to end of treatment); and 4) safety follow-up (end-of-treatment to 4 weeks later). The primary safety endpoint was time to first adjudicated major adverse cardiovascular event, defined as all-cause mortality, non-fatal myocardial infarction or non-fatal stroke pooled across both trials. The primary efficacy endpoint in each trial was mean change in hemoglobin from baseline to primary evaluation period (weeks 24-36) comparing vadadustat vs darbepoetin alfa treatment arms. Demographics and baseline characteristics were similar among patients in both trials, and typical for a large proportion of the NDD-CKD population. These trials helped define the safety and efficacy of vadadustat, an oral hypoxia-inducible factor prolyl hydroxylase inhibitor for management of anemia associated with NDD-CKD.
Two randomized, Phase 3, open-label, active-controlled clinical trials were conducted to evaluate the safety and efficacy of oral vadadustat versus injectable darbepoetin alfa: Correction (previously ESA-untreated) and Conversion (previously ESA-treated). Target enrollment for each was approximately 1850 patients recruited at approximately 390 and 480 sites in North America, Latin America, Europe, and the Asia Pacific for the ESA-untreated NDD-CKD trial and the ESA-treated NDD-CKD trial, respectively.
Trial Populations. Each trial recruited adults (>18 years of age) with NDD-CKD (estimated glomerular filtration rate 60 mL/min/1.73 m^2). […] In addition to the hemoglobin entry criteria, all patients were required to have serum ferritin ≥100 ng/mL and transferrin saturation 20% at screening in order to be randomized. In the ESA-untreated NDD-CKD trial, ESA use was permitted during screening, as per standard of care; however, patients were excluded if they received any ESA within 8 weeks of randomization. In the ESA-treated NDD-CKD trial, patients were actively maintained on ESA therapy, with at least one dose received within 6 weeks before or during screening. […]

O=C(O)CNC(=O)c1ncc(-c2cccc(Cl)c2)cc1O [Compound 1, Vadadustat]
subjects with an Hb excursion>13 g/dL ([1]; all cohorts): one | mean change in Hb from pre-baseline average ([1]; all dose cohorts (300 mg QD, 450 mg QD, 450 mg TIW), Weeks 7-8 and 15-16): no statistically significant mean change | serious AEs attributed to study drug ([1]; human, in vivo): No serious AEs | diarrhea ([1]; overall): 10.6% | nausea ([1]; overall): 11.7% | subjects who experienced an adverse event (AE) ([1]; overall): 83% | vomiting ([1]; overall): 9.6% | mean (SD) Hb level ([2]; week 24 to week 36): 10.77 (0.98) g/dL | mean (SD) Hb level ([2]; week 40 to week 52): 10.80 (1.04) g/dL | least square mean difference in Hb (vadadustat vs darbepoetin alfa) ([2]; weeks 24 to 36, non-inferiority margin −0.75 g/dL): -0.01 g/dL | least square mean difference in Hb (vadadustat vs darbepoetin alfa) ([2]; weeks 40 to 52): 0.00 g/dL
